# Test results taken from PMC4212090, “The comprehensive analysis of DEG/ENaC subunits in Hydra reveals a large variety of peptide-gated channels, potentially involved in neuromuscular transmission” (BMC Biology, 2014).
# Several values for one entry are separate records, joined by “and”; a condition that tells them apart may be missing. Equal entries are not always repeated. Entries after “also recorded” stand apart in the source; their conditions may differ. Where two headings read alike, the source gives them in different places.
# Columns and labels:
# [1] = biological target: T1, HyNaC2/3/5 (Hydra vulgaris (Hydra magnipapillata), UniProt A8DZR6+A8DZR7+D3UD58); test: Inhibition of HyNaC2/3/5 currents in Xenopus oocytes (TEVC); assay type: cell-based; settings: read-out: IAmil/I, relative current remaining after block by 100 μM amiloride
# T1 sequence (A8DZR6 entry or part of it): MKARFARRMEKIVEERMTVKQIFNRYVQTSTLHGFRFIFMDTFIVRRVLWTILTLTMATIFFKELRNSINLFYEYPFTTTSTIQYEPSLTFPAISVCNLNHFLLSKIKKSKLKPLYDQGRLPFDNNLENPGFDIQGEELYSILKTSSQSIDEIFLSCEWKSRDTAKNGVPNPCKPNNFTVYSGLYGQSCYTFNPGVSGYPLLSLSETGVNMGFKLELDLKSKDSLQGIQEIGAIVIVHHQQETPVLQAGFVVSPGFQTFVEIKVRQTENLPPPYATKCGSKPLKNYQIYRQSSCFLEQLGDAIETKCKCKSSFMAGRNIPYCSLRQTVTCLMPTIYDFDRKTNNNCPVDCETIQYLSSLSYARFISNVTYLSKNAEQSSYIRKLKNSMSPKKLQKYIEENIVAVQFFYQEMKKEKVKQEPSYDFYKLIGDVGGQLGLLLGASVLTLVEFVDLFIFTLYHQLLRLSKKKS
# T1 sequence (D3UD58 entry or part of it): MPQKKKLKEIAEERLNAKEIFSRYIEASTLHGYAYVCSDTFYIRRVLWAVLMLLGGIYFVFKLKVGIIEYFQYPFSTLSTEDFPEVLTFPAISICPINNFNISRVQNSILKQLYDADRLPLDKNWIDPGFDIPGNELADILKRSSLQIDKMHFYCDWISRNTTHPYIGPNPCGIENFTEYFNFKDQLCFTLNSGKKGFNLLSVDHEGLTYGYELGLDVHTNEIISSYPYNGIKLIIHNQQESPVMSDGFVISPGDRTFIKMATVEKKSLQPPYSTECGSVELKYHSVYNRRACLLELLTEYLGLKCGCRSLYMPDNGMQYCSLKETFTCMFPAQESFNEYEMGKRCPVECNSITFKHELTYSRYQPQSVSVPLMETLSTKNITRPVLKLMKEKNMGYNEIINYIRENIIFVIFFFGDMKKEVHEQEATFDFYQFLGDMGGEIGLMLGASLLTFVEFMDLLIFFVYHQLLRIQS
# T1 sequence (A8DZR7 entry or part of it): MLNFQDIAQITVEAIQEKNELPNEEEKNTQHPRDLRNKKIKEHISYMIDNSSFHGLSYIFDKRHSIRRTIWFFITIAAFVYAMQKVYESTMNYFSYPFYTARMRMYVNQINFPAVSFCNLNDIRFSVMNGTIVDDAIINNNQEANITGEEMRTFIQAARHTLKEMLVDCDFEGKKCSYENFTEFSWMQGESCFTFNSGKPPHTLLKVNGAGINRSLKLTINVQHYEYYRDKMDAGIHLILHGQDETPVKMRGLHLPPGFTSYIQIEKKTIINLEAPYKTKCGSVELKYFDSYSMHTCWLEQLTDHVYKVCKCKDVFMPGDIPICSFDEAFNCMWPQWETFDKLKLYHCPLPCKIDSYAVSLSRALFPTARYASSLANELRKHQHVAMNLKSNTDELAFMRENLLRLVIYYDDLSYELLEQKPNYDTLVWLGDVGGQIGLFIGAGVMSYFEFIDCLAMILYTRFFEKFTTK
# Experimental: (§1) One of the hallmarks of DEG/ENaCs is the block by the diuretic amiloride.
# (§2) Figure 10 Diminazene is a potent inhibitor of HyNaCs. A) Current trace illustrating the concentration-dependent inhibition of HyNaC2/9/7 by diminazene. Block by 100 μM amiloride was used to compare the affinity for diminazene and amiloride. […] Dashed lines represent the zero current level. B) Concentration-response curves showing the concentration-dependent inhibition of HyNaCs by diminazene. HyNaCs, Hydra Na^+ channels.
# (§3) To study the biophysical properties of the new HyNaCs, cRNA of HyNaCs was synthesized in vitro (mMessage mMachine kit, Ambion, Austin, Texas, USA) and injected into Xenopus laevis oocytes of stage V and VI. […] Whole cell currents were recorded from defolliculated oocytes by two-electrode voltage-clamp (TEVC) using the amplifier TurboTec 03X (npi electronic GmbH, Tamm, Germany). […]
# (§4) EC50 values for Hydra-RFamides I and II as well as IC50 values for diminazene were determined by fits to the Hill equation using IGOR Pro (version 6.06, WaveMetrics, Inc.). Reversal potentials were defined as the first recorded data point, where currents reversed signs from negative to positive. […]
# [2] = biological target: T1, HyNaC2/3/5; parameters: method as in PMID 20159980; settings: ref [4], read-out: IC50 (apparent amiloride affinity); cited from earlier work
# [3] = biological target: T2, HyNaC2/10/7 (Hydra vulgaris (Hydra magnipapillata), UniProt A0A0A0MP61+A0A0A0MP73+A8DZR6); test: Inhibition of HyNaC2/10/7 currents in Xenopus oocytes (TEVC); assay type: cell-based; settings: read-out: IAmil/I, relative current remaining after block by 100 μM amiloride
# T2 sequence (A0A0A0MP61 entry or part of it): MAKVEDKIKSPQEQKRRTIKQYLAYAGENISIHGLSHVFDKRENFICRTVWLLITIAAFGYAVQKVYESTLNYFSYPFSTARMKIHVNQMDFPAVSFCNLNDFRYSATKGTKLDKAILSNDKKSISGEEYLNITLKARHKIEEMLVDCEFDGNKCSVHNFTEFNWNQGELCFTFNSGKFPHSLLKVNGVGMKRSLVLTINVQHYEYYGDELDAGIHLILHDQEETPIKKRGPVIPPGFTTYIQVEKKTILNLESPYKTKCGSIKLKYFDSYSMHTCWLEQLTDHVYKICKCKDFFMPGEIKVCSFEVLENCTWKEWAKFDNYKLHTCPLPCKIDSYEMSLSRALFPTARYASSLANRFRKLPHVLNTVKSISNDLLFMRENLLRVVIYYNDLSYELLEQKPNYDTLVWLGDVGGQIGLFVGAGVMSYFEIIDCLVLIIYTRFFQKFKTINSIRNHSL
# T2 sequence (A0A0A0MP73 entry or part of it): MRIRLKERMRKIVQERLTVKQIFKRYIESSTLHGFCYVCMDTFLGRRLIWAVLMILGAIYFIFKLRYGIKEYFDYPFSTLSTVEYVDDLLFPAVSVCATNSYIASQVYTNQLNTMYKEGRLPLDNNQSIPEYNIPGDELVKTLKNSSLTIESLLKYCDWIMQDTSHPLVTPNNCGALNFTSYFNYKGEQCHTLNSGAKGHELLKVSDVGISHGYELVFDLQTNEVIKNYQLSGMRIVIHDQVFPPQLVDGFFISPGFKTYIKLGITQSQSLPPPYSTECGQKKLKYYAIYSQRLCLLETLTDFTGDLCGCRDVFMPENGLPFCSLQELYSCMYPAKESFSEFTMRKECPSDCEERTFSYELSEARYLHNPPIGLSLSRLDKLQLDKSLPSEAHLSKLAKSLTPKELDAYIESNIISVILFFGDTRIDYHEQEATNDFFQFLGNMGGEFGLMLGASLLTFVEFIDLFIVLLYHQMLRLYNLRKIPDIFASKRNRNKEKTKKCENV
# T2 sequence (A8DZR6 entry or part of it): as the sequence (A8DZR6 entry or part of it) above
# Experimental: as §1, §2, §3, §4
# [4] = test system: Hydra magnipapillata; parameters: method as in PMID 20159980; settings: 100 μM amiloride; ref [4]; cited from earlier work
# [5] = biological target: T3, HyNaC2/4/6 (Hydra vulgaris (Hydra magnipapillata), UniProt A0A0A0MP54+A8DZR6+A8DZR8); test: Inhibition of HyNaC2/4/6 currents in Xenopus oocytes (TEVC); assay type: cell-based; settings: read-out: IAmil/I, relative current remaining after block by 100 μM amiloride
# T3 sequence (A8DZR8 entry or part of it): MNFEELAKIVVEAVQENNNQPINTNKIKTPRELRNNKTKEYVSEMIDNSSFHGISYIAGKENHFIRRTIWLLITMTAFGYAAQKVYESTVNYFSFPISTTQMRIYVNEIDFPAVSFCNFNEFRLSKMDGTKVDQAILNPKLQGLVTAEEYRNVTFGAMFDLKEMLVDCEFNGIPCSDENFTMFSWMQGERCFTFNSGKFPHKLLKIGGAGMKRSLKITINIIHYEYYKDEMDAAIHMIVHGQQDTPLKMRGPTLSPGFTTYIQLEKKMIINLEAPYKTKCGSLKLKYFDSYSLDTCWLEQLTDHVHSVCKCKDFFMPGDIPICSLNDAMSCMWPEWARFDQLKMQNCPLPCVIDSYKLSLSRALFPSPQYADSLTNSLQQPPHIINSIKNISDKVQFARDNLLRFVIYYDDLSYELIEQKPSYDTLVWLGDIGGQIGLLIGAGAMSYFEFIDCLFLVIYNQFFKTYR
# T3 sequence (A0A0A0MP54 entry or part of it): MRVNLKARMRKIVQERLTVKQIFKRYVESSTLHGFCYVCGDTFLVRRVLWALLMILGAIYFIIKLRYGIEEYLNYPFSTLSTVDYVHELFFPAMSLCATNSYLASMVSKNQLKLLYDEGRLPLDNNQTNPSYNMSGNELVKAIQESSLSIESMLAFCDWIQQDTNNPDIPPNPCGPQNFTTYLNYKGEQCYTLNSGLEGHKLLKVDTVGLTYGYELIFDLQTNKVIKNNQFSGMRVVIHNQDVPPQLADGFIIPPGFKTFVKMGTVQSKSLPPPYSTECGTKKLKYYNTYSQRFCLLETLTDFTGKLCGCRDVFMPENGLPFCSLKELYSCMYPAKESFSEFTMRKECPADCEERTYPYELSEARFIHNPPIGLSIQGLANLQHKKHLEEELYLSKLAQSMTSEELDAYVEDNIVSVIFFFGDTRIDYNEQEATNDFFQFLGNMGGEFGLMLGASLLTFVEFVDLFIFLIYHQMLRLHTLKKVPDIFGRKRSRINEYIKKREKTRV
# T3 sequence (A8DZR6 entry or part of it): as the sequence (A8DZR6 entry or part of it) above
# Experimental: as §1, §2, §3, §4
# [6] = biological target: T4, HyNaC2/3/7 (Hydra vulgaris (Hydra magnipapillata), UniProt A0A0A0MP73+A8DZR6+A8DZR7); test: Inhibition of HyNaC2/3/7 currents in Xenopus oocytes (TEVC); assay type: cell-based; settings: read-out: IAmil/I, relative current remaining after block by 100 μM amiloride
# T4 sequence (A8DZR7 entry or part of it): as the sequence (A8DZR7 entry or part of it) above
# T4 sequence (A0A0A0MP73 entry or part of it): as the sequence (A0A0A0MP73 entry or part of it) above
# T4 sequence (A8DZR6 entry or part of it): as the sequence (A8DZR6 entry or part of it) above
# Experimental: as §1, §2, §3, §4
# [7] = biological target: T5, HyNaC2/3/6 (Hydra vulgaris (Hydra magnipapillata), UniProt A0A0A0MP54+A8DZR6+A8DZR7); test: Inhibition of HyNaC2/3/6 currents in Xenopus oocytes (TEVC); assay type: cell-based; settings: read-out: IAmil/I, relative current remaining after block by 100 μM amiloride
# T5 sequence (A0A0A0MP54 entry or part of it): as the sequence (A0A0A0MP54 entry or part of it) above
# T5 sequence (A8DZR7 entry or part of it): as the sequence (A8DZR7 entry or part of it) above
# T5 sequence (A8DZR6 entry or part of it): as the sequence (A8DZR6 entry or part of it) above
# Experimental: as §1, §2, §3, §4
# [8] = biological target: T6, HyNaC2/11/5 (Hydra vulgaris (Hydra magnipapillata), UniProt A0A0A0MP55+A8DZR6+D3UD58); test: Inhibition of HyNaC2/11/5 currents in Xenopus oocytes (TEVC); assay type: cell-based; settings: read-out: IAmil/I, relative current remaining after block by 100 μM amiloride
# T6 sequence (A0A0A0MP55 entry or part of it): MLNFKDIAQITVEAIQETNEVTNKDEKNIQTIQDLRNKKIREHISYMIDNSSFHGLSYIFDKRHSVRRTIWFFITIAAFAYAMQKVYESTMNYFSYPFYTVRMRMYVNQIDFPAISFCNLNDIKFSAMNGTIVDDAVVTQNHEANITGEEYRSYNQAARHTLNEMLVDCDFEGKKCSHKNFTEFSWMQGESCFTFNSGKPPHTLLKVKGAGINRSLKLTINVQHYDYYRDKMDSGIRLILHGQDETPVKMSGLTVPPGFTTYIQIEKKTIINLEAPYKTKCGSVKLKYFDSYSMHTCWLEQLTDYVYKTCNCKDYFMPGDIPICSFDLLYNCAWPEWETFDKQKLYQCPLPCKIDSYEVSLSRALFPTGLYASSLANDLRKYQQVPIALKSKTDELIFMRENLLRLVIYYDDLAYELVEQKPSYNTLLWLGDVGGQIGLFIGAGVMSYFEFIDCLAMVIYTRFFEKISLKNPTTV
# T6 sequence (A8DZR6 entry or part of it): as the sequence (A8DZR6 entry or part of it) above
# T6 sequence (D3UD58 entry or part of it): as the sequence (D3UD58 entry or part of it) above
# Experimental: as §1, §2, §3, §4
# [9] = biological target: T7, HyNaC2/9/7 (Hydra vulgaris (Hydra magnipapillata), UniProt A0A0A0MP48+A0A0A0MP73+A8DZR6); test: Inhibition of HyNaC2/9/7 currents in Xenopus oocytes (TEVC); assay type: cell-based; settings: read-out: IAmil/I, relative current remaining after block by 100 μM amiloride
# T7 sequence (A0A0A0MP48 entry or part of it): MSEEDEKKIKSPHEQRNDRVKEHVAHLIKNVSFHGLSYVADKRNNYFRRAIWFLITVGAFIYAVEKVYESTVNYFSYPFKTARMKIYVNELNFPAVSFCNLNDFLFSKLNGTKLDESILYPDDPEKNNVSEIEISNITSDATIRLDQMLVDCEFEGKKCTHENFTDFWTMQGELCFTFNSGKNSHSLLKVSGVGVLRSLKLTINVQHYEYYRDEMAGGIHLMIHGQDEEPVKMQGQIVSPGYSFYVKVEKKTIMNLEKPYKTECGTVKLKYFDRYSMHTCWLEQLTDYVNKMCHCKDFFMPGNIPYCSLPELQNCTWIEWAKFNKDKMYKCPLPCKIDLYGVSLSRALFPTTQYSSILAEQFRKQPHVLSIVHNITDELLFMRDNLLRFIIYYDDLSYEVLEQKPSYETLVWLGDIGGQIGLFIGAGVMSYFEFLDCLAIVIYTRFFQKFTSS
# T7 sequence (A8DZR6 entry or part of it): as the sequence (A8DZR6 entry or part of it) above
# T7 sequence (A0A0A0MP73 entry or part of it): as the sequence (A0A0A0MP73 entry or part of it) above
# Experimental: as §1, §2, §3, §4
# [10] = test system: functional HyNaC heterotrimer; test: Screen of functional HyNaC heterotrimers in Xenopus oocytes for activation by Hydra-RFamides; assay type: cell-based, Hydra magnipapillata; settings: 5 μM peptide; Xenopus oocytes
# Experimental: We tested the function of the new HyNaCs by co-expression of different HyNaC subunit combinations in Xenopus oocytes. We screened for functional subunit combinations by application of 5 μM Hydra-RFamide I, a potent agonist of HyNaC2/3/5 [4]. When we expressed an individual HyNaC subunit we could never elicit currents. […] When HyNaC2 was part of the injected cRNA pool, however, Hydra-RFamide I elicited currents. Simultaneous expression of HyNaC2 with a single other HyNaC resulted only in a functional channel when we co-expressed HyNaC2 and HyNaC3; it was already known that HyNaC2 and HyNaC3 form a low-affinity peptide-gated channel.
# Dashed line represents the zero current level. Amino acid sequences of Hydra-RFamides I to V are shown at the bottom. HyNaC, Hydra Na^+ channel.
# Since Hydra-RFamide II had been shown previously to activate HyNaC2/3/5 [4], we tested Hydra-RFamides II to V for channel activation.
# (§5) To study the biophysical properties of the new HyNaCs, cRNA of HyNaCs was synthesized in vitro (mMessage mMachine kit, Ambion, Austin, Texas, USA) and injected into Xenopus laevis oocytes of stage V and VI. After injection, oocytes were incubated for one to two days at 19°C in oocyte Ringer’s solution 2 (OR-2), which contained (in mM): 82.5 NaCl, 2.5 KCl, 1.0 Na2HPO4, 1.0 MgCl2, 1.0 CaCl2, 5.0 HEPES, 0.5 g/l PVP, 1,000 U/l penicillin and 10 mg/l streptomycin, NaOH was used to adjust pH to 7.3. Whole cell currents were recorded from defolliculated oocytes by two-electrode voltage-clamp (TEVC) using the amplifier TurboTec 03X (npi electronic GmbH, Tamm, Germany). Standard bath solution (in mM: 140 NaCl, 10 HEPES, 1.8 CaCl2 and 1.0 MgCl2. NaOH was used to adjust pH to 7.4.) was exchanged by a pump driven system combined with the oocyte testing carousel (OTC), which was controlled by the interface OTC-20 [53]. To control the OTC-20 and to record the data to the hard drive, the software CellWorks (version 5.1.1; npi electronic GmbH, Tamm, Germany) was used. Data were sampled at 0.1 to 1 kHz and filtered at 20 Hz. HyNaCs are permeable for Ca^2+, activating an endogenous CaCC [40]. Therefore, unless otherwise indicated, oocytes were injected with 50 nl of 20 mM EGTA 30 to 180 minutes before measurements. Reversal potentials and Ca^2+ permeabilities of HyNaCs were studied as described previously.
# [11] = biological target: T2, HyNaC2/10/7; test: Activation of HyNaC2/10/7 expressed in Xenopus oocytes by Hydra-RFamides (TEVC); assay type: cell-based; settings: EGTA-injected oocytes, saturating ligand concentration not reached
# Experimental: as §5
# (§6) EC50 values for Hydra-RFamides I and II as well as IC50 values for diminazene were determined by fits to the Hill equation using IGOR Pro (version 6.06, WaveMetrics, Inc.). Reversal potentials were defined as the first recorded data point, where currents reversed signs from negative to positive. For I/V relationships, voltage ramps in the absence of the agonist were used to subtract background conductances. Results are reported as mean ± standard error.
# [12] = biological target: T5, HyNaC2/3/6; test: Activation of HyNaC2/3/6 expressed in Xenopus oocytes by Hydra-RFamides (TEVC); assay type: cell-based
# Experimental: as §5, §6
# [13] = biological target: T1, HyNaC2/3/5; test: Activation of HyNaC2/3/5 expressed in Xenopus oocytes by Hydra-RFamides (TEVC); assay type: cell-based
# Experimental: as §5, §6
# [14] = biological target: T7, HyNaC2/9/7; test: Activation of HyNaC2/9/7 expressed in Xenopus oocytes by Hydra-RFamides (TEVC); assay type: cell-based
# Experimental: as §5, §6
# [15] = biological target: T1, HyNaC2/3/5; parameters: method as in PMID 20159980; settings: for comparison, ref [4], read-out: EC50 for Hydra-RFamide I; cited from earlier work
# [16] = biological target: T3, HyNaC2/4/6; test: Activation of HyNaC2/4/6 expressed in Xenopus oocytes by Hydra-RFamides (TEVC); assay type: cell-based
# Experimental: as §5, §6
# [17] = test system: HyNaCs containing HyNaC12; test: Activation of HyNaC12-containing subunit combinations in Xenopus oocytes by Hydra-RFamides; assay type: cell-based, Hydra magnipapillata; settings: HyNaC12 co-expressed with HyNaC2 and other HyNaCs or pools; 5 μM peptide
# Experimental: The contribution of the distantly related HyNaC12 to peptide-gated channels was assessed by co-expression with HyNaC2 and one or several other HyNaCs (HyNaC3 to HyNaC11). In addition, HyNaC12 was co-expressed with pools of different HyNaCs without HyNaC2. […] In fact, all HyNaCs that were activated by Hydra-RFamide I were opened by lowering the extracellular Ca^2+ concentration ([Ca^2+]e) to 10 nM (Figure 4). […] Some DEG/ENaCs are constitutively opened by an amino acid substitution at the so-called DEG-position. To further investigate whether HyNaC12 forms a functional homomeric channel, we substituted a glycine at the DEG-position by threonine (G436T), which has a large side chain. This substitution did, however, not constitutively open HyNaC12 (data not shown). This applies also for the co-expression of HyNaC12-G436T together with pools of different wild-type HyNaC subunits, leaving the function of HyNaC12 unknown. […]
# as §3
# [18] = test system: HyNaC2/9/5; test: Activation of HyNaC2/9/5 in Xenopus oocytes by Hydra-RFamides; assay type: cell-based, Hydra magnipapillata; settings: channel opened by lowering extracellular Ca2+
# Experimental: The contribution of the distantly related HyNaC12 to peptide-gated channels was assessed by co-expression with HyNaC2 and one or several other HyNaCs (HyNaC3 to HyNaC11). In addition, HyNaC12 was co-expressed with pools of different HyNaCs without HyNaC2. […] In fact, all HyNaCs that were activated by Hydra-RFamide I were opened by lowering the extracellular Ca^2+ concentration ([Ca^2+]e) to 10 nM (Figure 4). […] Some DEG/ENaCs are constitutively opened by an amino acid substitution at the so-called DEG-position. To further investigate whether HyNaC12 forms a functional homomeric channel, we substituted a glycine at the DEG-position by threonine (G436T), which has a large side chain. This substitution did, however, not constitutively open HyNaC12 (data not shown). This applies also for the co-expression of HyNaC12-G436T together with pools of different wild-type HyNaC subunits, leaving the function of HyNaC12 unknown.
# as §3
# [19] = biological target: T6, HyNaC2/11/5; test: Activation of HyNaC2/11/5 expressed in Xenopus oocytes by Hydra-RFamides (TEVC); assay type: cell-based
# Experimental: as §5, §6
# [20] = biological target: T4, HyNaC2/3/7; test: Activation of HyNaC2/3/7 expressed in Xenopus oocytes by Hydra-RFamides (TEVC); assay type: cell-based
# Experimental: as §5, §6
# [21] = Hydra-RFamide I concentration-response
# [22] = EGTA-injected oocytes, read-out: EC50 RFa I
molecule,measurement,setting,value
N=C(N)NC(=O)c1nc(Cl)c(N)nc1N [amiloride],remaining activity at 100 µM,[1],50 ± 10%
same,IC50,[2],~120 µM
same,remaining activity at 100 µM,[3],80 ± 10%
same,feeding reaction of living Hydra,[4],delays the feeding reaction
same,remaining activity at 100 µM,[5],30 ± 10%
same,remaining activity at 100 µM,[6],30 ± 10%
same,remaining activity at 100 µM,[7],30 ± 10%
same,remaining activity at 100 µM,[8],70 ± 10%
same,remaining activity at 100 µM,[9],30 ± 10%
Hydra-RFamide I,activation of functional HyNaC heterotrimers (current elicited),[10],activation of HyNaCs
same,EC50,[11],> 30 µM
same,EC50 RFa I,[11],too low to calculate the EC50 precisely
same,EC50,[12]; EGTA-injected oocytes,0.29 ± 0.06 µM
same,"Imax RFa I, current amplitude at maximal concentration of Hydra-RFamide I",[12]; EGTA-injected oocytes,15.7 ± 3.2 μA and 15.7 ± 3.2 (10) μA
same,Hill Coeff.,[12]; [21],1.2 ± 0.2
same,"Imax RFa I, current amplitude at maximal concentration of Hydra-RFamide I",[13]; EGTA-injected oocytes,9.2 ± 1.9 μA and 9.2 ± 1.9 (9) μA
same,EC50,[13]; [22],3.48 ± 0.55 µM
same,Hill Coeff.,[13]; [21],1.2 ± 0.1
same,EC50,[14]; [22],0.04 ± 0.01 µM
same,Hill Coeff.,[14]; [21],1.5 ± 0.3
same,EC50,[15],~5 µM
same,EC50,[16]; EGTA-injected oocytes,0.7 ± 0.08 µM
same,Hill Coeff.,[16]; [21],1.3 ± 0.1
same,activation of channels containing HyNaC12,[17],In no case did this result in channels that could be activated
same,activation of HyNaC2/9/5,[18],insensitive; also recorded: not activated
same,EC50,[19]; [22],13.8 ± 1.9 µM
same,Hill Coeff.,[19]; [21],0.9 ± 0.1
same,EC50,[20]; EGTA-injected oocytes,0.19 ± 0.04 µM
same,"Imax RFa I, current amplitude at maximal concentration of Hydra-RFamide I",[20]; EGTA-injected oocytes,19.6 ± 1.8 μA and 19.6 ± 1.8 (14) μA
same,Hill Coeff.,[20]; [21],1.6 ± 0.4
